Results: patent US8217035B2, “Pyrimidine derivatives used as PI-3-kinase inhibitors” (Novartis AG, priority 2006, dated 2012)

Key:
PI3 kinase alpha = PI3 kinase alpha (Homo sapiens, UniProt P42336); assay: PI3K ATP depletion assay (Biological Method 1, Assay 3; KinaseGlo luminescence); format: biochemical; conditions: ATP depletion assay; read-out: PI3 Kinase Alpha, IC50
How it was run: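 Compound in DMSO was mixed with 10 nM PI3 kinase and 5 μg/mL phosphatidylinositol, and the reaction was started with 2 μM ATP. It ran to about 50% ATP depletion and was stopped with KinaseGlo.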

[1] = system: pSer473 Akt in A2780 cells; assay: pSer473 Akt assay to monitor PI3K pathway in A2780 cells (Biological Method 2, MSD); format: cell-based; conditions: Homo sapiens; inhibition of Akt phosphorylation, A2780 cells
Method: In this method, an assay for measuring the PI3K-mediated pSer473-Akt status after treatment with representative inhibitor compounds of the invention is described.
A2780 cells were cultured in DMEM supplemented with 10% FBS. L-glutamine, sodium pyruvate, and antibiotics. Cells were plated in the same medium at a density of 15,000 cells per well into 96 well tissue culture plates, with outside wells vacant, and allowed to adhere overnight.
Test compounds supplied in DMSO were diluted further into DMSO at 500 times the desired final concentrations before dilution into culture media to 2 times the final concentrations. Equal volumes of 2× compounds were added to the cells in 96 well plates and incubated at 37° C. for one hour. The media and compounds were then removed, the plates chilled and cells lysed in a lysis buffer (150 mM NaCl, 20 mM Tris pH 7.5, 1 mM EDTA, 1 mM EGTA, 1% Triton X-100) supplemented with phosphatase and protease inhibitors. After thorough mixing, lysates were transferred to both pSer473Akt and total Akt assay plates from Meso Scale Discovery (MSD), and incubated overnight with shaking at 4° C.
The assays were read on a SECTOR Imager 6000 instrument (Meso Scale Discovery). Ratios of the signal from pSer473Akt and total Akt assays were used to correct for any variability and the percent inhibition of pSer473Akt from the total signal seen in cells treated with compound versus DMSO alone was calculated and used to determine EC50 values for each compound.

[2] = system: A2780 ovarian cancer cells; assay: Cellular proliferation in A2780 cells, Cell Titer Glo (Biological Method 4); format: cell-based; conditions: Homo sapiens; ovarian cancer cell line A2780
How it was run: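 Viability after 72 h compound exposure (37 °C, 5% CO2) was read by Cell Titer Glo and an EC50 derived, each condition in duplicate. A2780 ovarian cells had been plated at 1,000 per well in DMEM/10% FBS at least 2 h beforehand.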

PI3 kinase alpha, sequence (P42336 whole entry): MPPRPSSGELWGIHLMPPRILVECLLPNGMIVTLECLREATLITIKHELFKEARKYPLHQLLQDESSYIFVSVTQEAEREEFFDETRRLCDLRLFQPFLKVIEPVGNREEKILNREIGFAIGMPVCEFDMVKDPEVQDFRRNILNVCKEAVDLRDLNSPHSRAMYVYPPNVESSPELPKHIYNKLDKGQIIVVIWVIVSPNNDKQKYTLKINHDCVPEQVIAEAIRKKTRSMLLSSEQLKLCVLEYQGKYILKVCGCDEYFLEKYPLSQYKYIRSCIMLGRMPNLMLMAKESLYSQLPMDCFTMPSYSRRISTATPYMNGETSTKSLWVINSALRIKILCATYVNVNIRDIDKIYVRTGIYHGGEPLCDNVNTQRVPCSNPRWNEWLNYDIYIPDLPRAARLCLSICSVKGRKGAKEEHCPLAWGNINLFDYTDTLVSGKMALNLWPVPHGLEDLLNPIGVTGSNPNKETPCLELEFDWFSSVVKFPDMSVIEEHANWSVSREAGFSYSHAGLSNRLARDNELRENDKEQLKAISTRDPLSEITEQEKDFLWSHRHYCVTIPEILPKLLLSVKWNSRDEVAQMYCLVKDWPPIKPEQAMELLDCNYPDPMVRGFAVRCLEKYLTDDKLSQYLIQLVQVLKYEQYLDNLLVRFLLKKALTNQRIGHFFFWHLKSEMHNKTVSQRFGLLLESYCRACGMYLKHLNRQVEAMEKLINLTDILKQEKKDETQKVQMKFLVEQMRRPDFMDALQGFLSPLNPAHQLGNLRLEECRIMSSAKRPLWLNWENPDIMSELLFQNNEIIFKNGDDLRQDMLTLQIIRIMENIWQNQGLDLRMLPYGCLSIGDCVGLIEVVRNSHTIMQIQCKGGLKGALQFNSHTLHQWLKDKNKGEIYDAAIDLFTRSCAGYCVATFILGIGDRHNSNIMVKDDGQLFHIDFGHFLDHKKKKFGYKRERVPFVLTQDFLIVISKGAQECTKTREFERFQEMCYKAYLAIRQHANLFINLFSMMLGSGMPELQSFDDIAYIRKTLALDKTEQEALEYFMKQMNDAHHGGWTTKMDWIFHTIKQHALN
PI3 kinase alpha, sequence (P27986 whole entry partner): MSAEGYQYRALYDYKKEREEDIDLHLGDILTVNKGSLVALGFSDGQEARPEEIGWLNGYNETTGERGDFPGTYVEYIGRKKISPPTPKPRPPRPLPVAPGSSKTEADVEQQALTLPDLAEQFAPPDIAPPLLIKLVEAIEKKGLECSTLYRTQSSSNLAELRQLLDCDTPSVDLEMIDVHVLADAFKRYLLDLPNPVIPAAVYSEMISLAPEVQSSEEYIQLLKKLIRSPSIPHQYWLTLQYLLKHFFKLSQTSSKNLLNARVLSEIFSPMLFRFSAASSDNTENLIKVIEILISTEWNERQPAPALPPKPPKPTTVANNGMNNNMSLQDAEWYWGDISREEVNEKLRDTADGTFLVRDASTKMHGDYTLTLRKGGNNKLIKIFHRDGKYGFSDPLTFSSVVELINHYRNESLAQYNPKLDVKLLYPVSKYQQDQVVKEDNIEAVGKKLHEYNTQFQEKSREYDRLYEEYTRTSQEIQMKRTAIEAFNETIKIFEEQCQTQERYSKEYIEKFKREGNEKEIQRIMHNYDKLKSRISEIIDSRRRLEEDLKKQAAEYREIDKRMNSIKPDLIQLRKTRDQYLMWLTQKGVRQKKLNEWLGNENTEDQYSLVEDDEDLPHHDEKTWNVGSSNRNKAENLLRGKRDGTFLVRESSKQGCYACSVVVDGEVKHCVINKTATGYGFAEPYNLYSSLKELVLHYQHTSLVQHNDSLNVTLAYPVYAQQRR

SMILES	IC50 (PI3 kinase alpha) [µM]	EC50 [1] [µM]	EC50 [2] [µM]
CC(=O)N1CCC(Oc2cc(-c3cnc(N)nc3N)nc(N3CCOCC3)n2)CC1 [Compound 99]	< 1	< 1	< 1
Nc1ncc(-c2cc(O[C@H]3CCOC3)nc(N3CCOCC3)n2)c(N)n1 [Compound 101]	< 1	< 1	< 10
CCOc1cc(Nc2cc(-c3ccc(N)nc3)nc(N3CCOCC3)n2)ccn1 [Compound 102]	< 1	< 1	< 1
Nc1ccc(-c2cc(-c3cccnc3NCCO)nc(N3CCOCC3)n2)cn1 [Compound 104]	< 1	< 1	< 10
CS(=O)(=O)c1cccc(-c2cc(-c3cnc(N)[nH]c3=O)nc(N3CCOCC3)n2)c1 [Compound 105]	< 1	< 1	< 1
CC(C)C(=O)N1CCC(Oc2cc(-c3cnc(N)nc3C(F)(F)F)nc(N3CCOCC3)n2)CC1 [Compound 106]	< 1	< 1	< 1
Nc1ncc(-c2cc(O[C@@H]3CCOC3)nc(N3CCOCC3)n2)c(N)n1 [Compound 108]	< 1	< 1	< 1
CS(=O)(=O)c1ccnc(Nc2cc(-c3cnc(N)cc3C(F)(F)F)nc(N3CCOCC3)n2)c1 [Compound 109]	< 1	< 1	< 10
Cc1cc(Nc2cc(-c3cnc(N)cc3C(F)(F)F)nc(N3CCOCC3)n2)ccn1 [Compound 110]	< 1	< 1	< 1
Nc1ncc(-c2cc(Nc3cccc(F)c3)nc(N3CCOCC3)n2)cn1 [Compound 111]	< 1	< 1	< 10
CS(=O)(=O)c1ccc(Nc2cc(-c3ccc(N)nc3)nc(N3CCOCC3)n2)cc1 [Compound 112]	< 1	< 1	< 10
Nc1cc(C(F)(F)F)c(-c2cc(N3CCOCC3Cc3ccccc3)nc(N3CCOCC3)n2)cn1 (stereo not drawn) [Compound 113]	< 1	< 1	< 10
CC(C)OC(=O)N1CCC(Oc2cc(-c3cnc(N)nc3C(F)(F)F)nc(N3CCOCC3)n2)CC1 [Compound 115]	< 1	< 1	< 10
CN1CCC(Oc2ccc(Nc3cc(-c4cnc(N)cc4C(F)(F)F)nc(N4CCOCC4)n3)cn2)CC1 [Compound 116]	< 1	< 1	< 10
COC(=O)N1CCC(Oc2cc(-c3cnc(N)cc3C(F)(F)F)nc(N3CCOCC3)n2)CC1 [Compound 117]	< 1	< 1	< 10
N#Cc1cc(N)ncc1-c1cc(OC2CCOCC2)nc(N2CCOCC2)n1 [Compound 118]	< 1	< 1	< 1
CC(=O)N1CCC(Oc2cc(-c3cnc(N)nc3C(F)(F)F)nc(N3CCOCC3)n2)CC1 [Compound 119]	< 1	< 1	< 1
CS(=O)(=O)N1CCC(Oc2cc(-c3cnc(N)nc3N)nc(N3CCOCC3)n2)CC1 [Compound 120]	< 1	< 1	< 10
Nc1ncc(-c2cc(-c3cnc(N)nc3C(F)(F)F)nc(N3CCOCC3)n2)c(C(F)(F)F)n1 [Compound 121]	< 1	< 1	< 1
Nc1ncc(-c2cc(OC3CCN(C(=O)c4ccccc4)CC3)nc(N3CCOCC3)n2)c(N)n1 [Compound 122]	< 1	< 1	< 1
Nc1ncc(-c2cc(Nc3ccc(F)cc3)nc(N3CCOCC3)n2)cn1 [Compound 123]	< 1	< 1	< 10
Nc1ncc(-c2cc(OC3CCN(C(=O)c4ccccc4)CC3)nc(N3CCOCC3)n2)c(C(F)(F)F)n1 [Compound 124]	< 1	< 1	< 1
CS(=O)(=O)c1cccc(-c2cc(-c3cnc(N)nc3N)nc(N3CCOCC3)n2)c1 [Compound 125]	< 1	< 1	< 1
CS(=O)(=O)N1CCC[C@@H](Oc2cc(-c3cnc(N)nc3N)nc(N3CCOCC3)n2)C1 [Compound 127]	< 1	< 1	< 10
CS(=O)(=O)c1ccc(Nc2cc(-c3cnc(N)cc3C(F)(F)F)nc(N3CCOCC3)n2)cn1 [Compound 128]	< 1	< 1	< 10

SMILES	IC50 (PI3 kinase alpha) [µM]	EC50 [1] [µM]	EC50 [2] [µM]
CC(C)N1CCC(Oc2cncc(-c3cc(-c4cnc(N)cc4C(F)(F)F)nc(N4CCOCC4)n3)c2)C1 (stereo not drawn) [Compound 129]	< 1	< 1	< 10
Cc1cc(Nc2cc(-c3ccc(N)nc3)nc(N3CCOCC3)n2)ccn1 [Compound 130]	< 1	< 1	< 1
CC(C)OC(=O)N1CCC(Oc2cc(-c3cnc(N)nc3N)nc(N3CCOCC3)n2)CC1 [Compound 131]	< 1	< 1	< 1
CC(C)C(=O)N1CCC(Oc2cc(-c3cnc(N)nc3N)nc(N3CCOCC3)n2)CC1 [Compound 134]	< 1	< 1	< 1
Nc1ncc(-c2cc(Nc3ccc4cn[nH]c4c3)nc(N3CCOCC3)n2)cn1 [Compound 135]	< 1	< 1	< 1
CS(=O)(=O)Nc1ncccc1-c1cc(-c2cnc(N)cc2C#N)nc(N2CCOCC2)n1 [Compound 136]	< 1	< 1	< 1
CC(C)C(=O)N1CCC[C@@H](Oc2cc(-c3cnc(N)nc3N)nc(N3CCOCC3)n2)C1 [Compound 137]	< 1	< 1	< 10
Nc1cc(C(F)(F)F)c(-c2cc(-c3nccs3)nc(N3CCOCC3)n2)cn1 [Compound 138]	< 1	< 1	< 10
CS(=O)(=O)c1cccc(Nc2cc(-c3ccc(N)nc3)nc(N3CCOCC3)n2)c1 [Compound 139]	< 1	< 1	< 10
COc1cccc2ncc(Nc3cc(-c4cnc(N)cc4C(F)(F)F)nc(N4CCOCC4)n3)cc12 [Compound 140]	< 1	< 1	< 10
CS(=O)(=O)c1ccccc1Nc1cc(-c2ccc(N)nc2)nc(N2CCOCC2)n1 [Compound 141]	< 1	< 1	< 10
Nc1ccc(-c2cc(Nc3ccncc3C(F)(F)F)nc(N3CCOCC3)n2)cn1 [Compound 142]	< 1	< 1	< 1
CS(=O)(=O)c1cccc(-c2cc(-c3cnc(N)nc3C(F)(F)F)nc(N3CCOCC3)n2)c1 [Compound 143]	< 1	< 1	< 1
N#Cc1cnc(Nc2cc(-c3cnc(N)cc3C(F)(F)F)nc(N3CCOCC3)n2)s1 [Compound 144]	< 1	< 1	< 10
CS(=O)(=O)Nc1ncccc1-c1cc(-c2cnc(N)cc2C(F)(F)F)nc(N2CCOCC2)n1 [Compound 145]	< 1	< 1	< 10
COc1ccnc(Nc2cc(-c3ccc(N)nc3)nc(N3CCOCC3)n2)c1 [Compound 148]	< 1	< 1	< 25
CS(=O)(=O)c1ccc2cc(Nc3cc(-c4ccc(N)nc4)nc(N4CCOCC4)n3)cnc2c1 [Compound 149]	< 1	< 1	< 10
Nc1cc(C(F)(F)F)c(-c2cc(Nc3ccc(OC4CCNCC4)nc3)nc(N3CCOCC3)n2)cn1 [Compound 150]	< 1	< 1	< 1
N#Cc1ccnc(Nc2cc(-c3ccc(N)nc3)nc(N3CCOCC3)n2)c1 [Compound 152]	< 1	< 1	< 10
Nc1cc(C(F)(F)F)c(-c2cc(Nc3ccncc3C(F)(F)F)nc(N3CCOCC3)n2)cn1 [Compound 153]	< 1	< 1	< 1
COc1ccc2ncc(Nc3cc(-c4cnc(N)nc4C)nc(N4CCOCC4)n3)cc2c1 [Compound 154]	< 1	< 1	< 1
Nc1ccc(-c2cc(Nc3ccnc(Cl)c3)nc(N3CCOCC3)n2)cn1 [Compound 155]	< 1	< 1	< 10
COc1cccc2ncc(Nc3cc(-c4ccc(N)nc4)nc(N4CCOCC4)n3)cc12 [Compound 156]	< 1	< 1	< 1
CS(=O)(=O)Nc1nc2ccccc2cc1-c1cc(-c2ccc(N)nc2)nc(N2CCOCC2)n1 [Compound 157]	< 1	< 1	< 25
